Results on two compounds are retold here after patent US9309547B2, “Methods for making tocoflexols and analogues thereof” (The Board of Trustees of the University of Arkansas, priority 2012, dated 2016).

In one series the test system is rat liver microsomes. Briefly: Inhibition of lipid peroxidation in rat liver microsomes treated with TBHP. It is filed as biochemical, Wistar rat. Conditions: FIG. 2; for IC50: 1 mg/ml microsomal protein, 37° C. 1 hour preincubation, 200 μM TBHP for 30 min. As to the method:
One of the most well-known properties of the vitamin E components is their ability to prevent lipid peroxidation. See Traber et al. (2011) Free Radis Biol Med 51(5):1000-1013. Briefly, the antioxidant activity of vitamin E analogs was evaluated in rat liver microsomes by measuring inhibition of lipid peroxidation after TBHP ([…]) treatment. Wistar rat liver microsomes (BD Biosciences) were diluted in phosphate buffer, 0.1 M (pH 7.4), at the final protein concentration of 1 mg/ml. The microsomes were treated with different concentrations of tocols (diluted with DMSO) and incubated at 37° C. for 1 hour before inducing lipid peroxidation with 200 μM TBHP (DMSO) for 30 min.

The next series deals with Mouse NSC 34 cells. Briefly: Cell uptake of tocols by NSC 34 cells (GC/MS). It is filed as cell-based. Conditions: final concentration 5 μM, 0-24 hours, FIG. 1. As to the method: The experiment was carried out as described below. Mouse NSC 34 cells were grown in Dulbecco's modified Eagle's medium (DMEM) supplemented with 10% fetal bovine serum and 1% penicillin/streptomycin at 37° C. in a humidified atmosphere containing 95% air and 5% CO2. The cell culture medium was replaced every 2 or 3 days with fresh medium containing serum and antibiotic. Cells were reseeded when the cell monolayers became confluent. For the experiments, cells at passages 15-27 were seeded in 6-well plates at 1 million cells per well. 5 mM test solutions were prepared in DMSO. NSC 34 monolayers above 80% confluency were treated with 2 μl of test compound (final concentration 5 μM) for 0, 1, 2, 4, 8, 12, and 24 hours. […] Hexane extracts were dried under nitrogen and were quantitatively transferred to a deactivated glass micro insert using methylene chloride and dried under nitrogen. […] Protein concentration was determined using the Pierce BCA protein assay kit. The derivatized samples were analyzed using GC/MS by single ion monitoring (Agilent 5975 GC/MSD; Agilent Technologies, Palo Alto, Calif.). […] Samples were analyzed using helium as the carrier gas (head pressure of 27 psi), 1 μl splitless injection, the injector temperature was 275° C., the column temperature was maintained at 220° C. for 2 min followed by a gradient of 25° C./min to 300° C., and remained at that temperature for 10 min. […]

“And” between values parts separate entries of the source, which are not always exact repeats. Equal values may be shown once.

In turn, `Cc1c(C)c2c(c(C)c1O)CC[C@@](C)(CCC[C@H](C)CCC[C@H](C)CCCC(C)C)O2` [AT, α-tocopherol, reference compound] registered an IC50 with rat liver microsomes of 6.78 µM.
`CC(C)=CCC[C@@H](C)CCC/C(C)=C/CC[C@]1(C)CCc2cc(O)cc(C)c2O1` [δ-tocoflexol, (2R,8′S)-δ-tocoflexol] displayed an IC50 in the series with rat liver microsomes of 1.35 µM. Also, the “antioxidant potential, times that of α-tocopherol (AT)” value in the series with rat liver microsomes (rat liver microsomes treated with 200 μM TBHP) is > 5 times and 5 times. The “cell-uptake compared with that of α-tocopherol” value in the series on Mouse NSC 34 cells is given as “almost double”.
